In US10117864B2, “Substituted N-bicyclo-2-aryl-quinolin-4-carboxamides and use thereof” (BAYER PHARMA AKTIENGESELLSCHAFT, priority 2015, dated 2018):

Biological target: human FP receptor (Homo sapiens (Human), UniProt P43088)
Test: In vitro test of inhibition of human FP receptor activity (PGF2α-induced calcium flux in FP-expressing CHEM1 cells)
Type: cell-based
Settings: PGF2α-induced (3 nM) calcium flux, some as mean values from multiple independent determinations
Excerpt: • CRTH2 chemoattractant receptor-homologous molecule expressed on T helper type 2 cells • DMEM Dulbecco's modified Eagle's medium • DMSO dimethyl sulfoxide • DP PGD2 receptor • EC50 half-maximum effective concentration • Em emission • EP PGE2 receptor • Ex excitation • from Company (source) • FCS fetal calf serum • FP PGF2α receptor • HEPES 2-[4-(2-hydroxyethyl)piperazin-1-yl]ethanesulfonic acid • IC50 half-maximum inhibitory concentration • IP PGI2 receptor • MES 2-(N-morpholino)ethanesulfonic acid • Pen/Strep penicillin/streptomycin • PGD2 prostaglandin D2 • PGE2 prostaglandin E2 • PGF2α prostaglandin F2α • PGI2 prostaglandin I2 • TC tissue culture • TP thromboxane A2 receptor • Tris tris(hydroxymethyl)aminomethane • v/v volume to volume ratio (of a solution) • w/w weight to weight ratio (of a solution) B-1. In Vitro Test of Inhibition of Human FP Receptor Activity
For the characterization of test substances in respect of FP antagonism, PGF2α-induced calcium flux in FP-expressing CHEM1 cells (Millipore, HTS093C) was used.
Prior to the measurement, the medium is replaced by 30 μl of Fluo-8 AM loading buffer [calcium-free Tyrode (130 mM NaCl, 5 mM KCl, 20 mM HEPES, 1 mM MgCl2, 4.8 mM NaHCO3, pH 7.4), 2 mM CaCl2, 1× SmartBlock (from CANDOR Bioscience GmbH), 4.5 mM Probenecid, 5 μM Fluo-8 AM, 0.016% Pluronic®, 0.04% Brilliant black] and incubated at 37° C./5% CO2 for 30 minutes. […] 10 μl of the prediluted substance solution are added to the Fluo-8-laden cells and incubated at 37° C./5% CO2 for 10 minutes. The FP receptor is activated by adding 20 μl of 3 nM (final concentration) PGF2α in calcium-free Tyrode/2 mM CaCl2/0.04% Brilliant black, and the calcium flux is determined by measuring the fluorescence at ex. 470 nm/[…].
Table 1 below lists the IC50 values from this assay for individual working examples of the invention (some as mean values from multiple independent individual determinations): […]

human FP receptor, sequence (P43088 whole entry): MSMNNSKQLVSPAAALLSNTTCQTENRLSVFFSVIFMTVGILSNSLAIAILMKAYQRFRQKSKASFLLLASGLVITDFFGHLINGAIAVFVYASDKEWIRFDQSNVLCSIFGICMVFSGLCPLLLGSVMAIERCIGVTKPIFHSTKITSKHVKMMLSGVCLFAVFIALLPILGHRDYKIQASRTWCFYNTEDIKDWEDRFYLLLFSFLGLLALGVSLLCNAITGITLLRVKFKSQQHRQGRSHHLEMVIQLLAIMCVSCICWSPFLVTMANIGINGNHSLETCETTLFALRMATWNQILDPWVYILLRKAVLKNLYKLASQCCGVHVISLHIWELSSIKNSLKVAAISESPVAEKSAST

Row | Structure (SMILES) | IC50
1 | Cc1c(-c2ccccc2)nc2ccc(Cl)cc2c1C(=O)NC12CCC(C(=O)O)(CC1)CC2 [Example 2, 4-{[(6-Chloro-3-methyl-2-phenylquinolin-4-yl)carbonyl]amino}bicyclo[2.2.2]octane-1-carboxylic acid] | 259 nM
2 | Cc1c(-c2ccccc2)nc2cc(Cl)c(Cl)cc2c1C(=O)NC12CCC(C(=O)O)(CC1)CC2 [Example 3, 4-{[(6,7-Dichloro-3-methyl-2-phenylquinolin-4-yl)carbonyl]amino}bicyclo[2.2.2]octane-1-carboxylic acid] | 142 nM
3 | Cc1c(-c2cccs2)nc2ccc(Br)cc2c1C(=O)NC12CCC(C(=O)O)(CC1)CC2 [Example 5, 4-({[6-Bromo-3-methyl-2-(2-thienyl)quinolin-4-yl]carbonyl}amino)bicyclo[2.2.2]octane-1-carboxylic acid] | 113 nM
4 | Cc1c(-c2ccccc2F)nc2ccc(Br)cc2c1C(=O)NC12CCC(C(=O)O)(CC1)CC2 [Example 6, 4-({[6-Bromo-2-(2-fluorophenyl)-3-methylquinolin-4-yl]carbonyl}amino)bicyclo[2.2.2]octane-1-carboxylic acid] | 240 nM
5 | Cc1c(-c2cccc(F)c2)nc2ccc(Br)cc2c1C(=O)NC12CCC(C(=O)O)(CC1)CC2 [Example 7, 4-({[6-Bromo-2-(3-fluorophenyl)-3-methylquinolin-4-yl]carbonyl}amino)bicyclo[2.2.2]octane-1-carboxylic acid] | 181 nM
6 | Cc1c(-c2ccc(F)cc2)nc2ccc(Br)cc2c1C(=O)NC12CCC(C(=O)O)(CC1)CC2 [Example 8, 4-({[6-Bromo-2-(4-fluorophenyl)-3-methylquinolin-4-yl]carbonyl}amino)bicyclo[2.2.2]octane-1-carboxylic acid] | 180 nM
7 | Cc1c(-c2cc(F)cc(F)c2)nc2ccc(Br)cc2c1C(=O)NC12CCC(C(=O)O)(CC1)CC2 [Example 9, 4-({[6-Bromo-2-(3,5-difluorophenyl)-3-methylquinolin-4-yl]carbonyl}amino)bicyclo[2.2.2]octane-1-carboxylic acid] | 386 nM
8 | Cc1c(-c2ccccc2Cl)nc2ccc(Br)cc2c1C(=O)NC12CCC(C(=O)O)(CC1)CC2 [Example 10, 4-({[6-Bromo-2-(2-chlorophenyl)-3-methylquinolin-4-yl]carbonyl}amino)bicyclo[2.2.2]octane-1-carboxylic acid] | 128 nM
9 | Cc1c(-c2cccc(Cl)c2)nc2ccc(Br)cc2c1C(=O)NC12CCC(C(=O)O)(CC1)CC2 [Example 11, 4-({[6-Bromo-2-(3-chlorophenyl)-3-methylquinolin-4-yl]carbonyl}amino)bicyclo[2.2.2]octane-1-carboxylic acid] | 129 nM
10 | O=C(NC12CCC(C(=O)O)(CC1)CC2)c1c(F)c(-c2ccccc2)nc2ccc(Br)cc12 [Example 12, 4-{[(6-Bromo-3-fluoro-2-phenylquinolin-4-yl)carbonyl]amino}bicyclo[2.2.2]octane-1-carboxylic acid] | 139 nM
11 | COc1c(-c2ccccc2)nc2ccc(Br)cc2c1C(=O)NC12CCC(C(=O)O)(CC1)CC2 [Example 13, 4-{[(6-Bromo-3-methoxy-2-phenylquinolin-4-yl)carbonyl]amino}bicyclo [2.2.2]octane-1-carboxylic acid] | 153 nM
12 | Cc1c(-c2ccccc2)nc2ccc(I)cc2c1C(=O)NC12CCC(C(=O)O)(CC1)CC2 [Example 14, 4-{[(6-Iodo-3-methyl-2-phenylquinolin-4-yl)carbonyl]amino}bicyclo[2.2.2]octane-1-carboxylic acid] | 33 nM
13 | Cc1c(-c2ccccc2)nc2ccc(C3CC3)cc2c1C(=O)NC12CCC(C(=O)O)(CC1)CC2 [Example 15, 4-{[(6-Cyclopropyl-3-methyl-2-phenylquinolin-4-yl)carbonyl]amino}bicyclo[2.2.2]octane-1-carboxylic acid] | 326 nM
14 | Cc1c(-c2ccccc2)nc2ccc(C3CCC3)cc2c1C(=O)NC12CCC(C(=O)O)(CC1)CC2 [Example 16, 4-{[(6-Cyclobutyl-3-methyl-2-phenylquinolin-4-yl)carbonyl]amino}bicyclo [2.2.2]octane-1-carboxylic acid] | 589 nM
15 | Cc1c(-c2ccccc2)nc2ccc([Si](C)(C)C)cc2c1C(=O)NC12CCC(C(=O)O)(CC1)CC2 [Example 17, 4-({[3-Methyl-2-phenyl-6-(trimethylsilyl)quinolin-4-yl]carbonyl}amino)bicyclo[2.2.2]octane-1-carboxylic acid] | 214 nM
16 | Cc1c(-c2ccccc2)nc2ccc(C(F)F)cc2c1C(=O)NC12CCC(C(=O)O)(CC1)CC2 [Example 18, 4-({[6-(Difluoromethyl)-3-methyl-2-phenylquinolin-4-yl]carbonyl}amino)bicyclo[2.2.2]octane-1-carboxylic acid] | 543 nM
17 | Cc1c(-c2ccccc2)nc2ccc(OC(F)(F)F)cc2c1C(=O)NC12CCC(C(=O)O)(CC1)CC2 [Example 19, 4-({[3-Methyl-2-phenyl-6-(trifluoromethoxy)quinolin-4-yl]carbonyl}amino)bicyclo[2.2.2]octane-1-carboxylic acid] | 917 nM
18 | Cc1c(-c2ccccc2)nc2ccc(SC(F)(F)F)cc2c1C(=O)NC12CCC(C(=O)O)(CC1)CC2 [Example 20, 4-[({3-Methyl-2-phenyl-6-[(trifluoromethyl)sulfanyl]quinolin-4-yl}carbonyl)amino]bicyclo[2.2.2]octane-1-carboxylic acid] | 521 nM
19 | Cc1c(-c2ccccc2)nc2c(C)cc(Br)cc2c1C(=O)NC12CCC(C(=O)O)(CC1)CC2 [Example 21, 4-{[(6-Bromo-3,8-dimethyl-2-phenylquinolin-4-yl)carbonyl]amino}bicyclo[2.2.2]octane-1-carboxylic acid] | 214 nM

More lines, now with the values ahead:

Row | IC50 | Structure (SMILES)
20 | 435 nM | Cc1c(-c2ccccc2)nc2ccc(Br)cc2c1C(=O)NC12CCC(C(=O)O)(CC1)C(O)C2 (racemic) [Example 59, 4-{[(6-Bromo-3-methyl-2-phenylquinolin-4-yl)carbonyl]amino}-2-hydroxybicyclo[2.2.2]octane-1-carboxylic acid (racemate)]
21 | 677 nM | Cc1c(-c2ccccc2)nc2c(Cl)cc(Cl)cc2c1C(=O)NC12CCC(C(=O)O)(CC1)CC2 [Example 22, 4-{[(6,8-Dichloro-3-methyl-2-phenylquinolin-4-yl)carbonyl]amino}bicyclo[2.2.2]octane-1-carboxylic acid]
22 | 306 nM | Cc1cc2nc(-c3ccccc3)c(C)c(C(=O)NC34CCC(C(=O)O)(CC3)CC4)c2cc1C [Example 23]
23 | 129 nM | Cc1ccccc1-c1nc2ccc(Br)cc2c(C(=O)NC23CCC(C(=O)O)(CC2)CC3)c1C [Example 24, 4-({[6-Bromo-3-methyl-2-(2-methylphenyl)quinolin-4-yl]carbonyl}amino)bicyclo[2.2.2]octane-1-carboxylic acid]
24 | 494 nM | Cc1c(-c2c(F)cccc2F)nc2ccc(Br)cc2c1C(=O)NC12CCC(C(=O)O)(CC1)CC2 [Example 25, 4-({[6-Bromo-2-(2,6-difluorophenyl)-3-methylquinolin-4-yl]carbonyl}amino)bicyclo[2.2.2]octane-1-carboxylic acid]
25 | 114 nM | COc1cccc(-c2nc3ccc(Br)cc3c(C(=O)NC34CCC(C(=O)O)(CC3)CC4)c2C)c1 [Example 26, 4-({[6-Bromo-2-(3-methoxyphenyl)-3-methylquinolin-4-yl]carbonyl}amino)bicyclo[2.2.2]octane-1-carboxylic acid]
26 | 74 nM | CSc1c(-c2ccccc2)nc2ccc(Br)cc2c1C(=O)NC12CCC(C(=O)O)(CC1)CC2 [Example 27, 4-({[6-Bromo-3-(methylsulfanyl)-2-phenylquinolin-4-yl]carbonyl}amino)bicyclo[2.2.2]octane-1-carboxylic acid]
27 | 220 nM | CCc1c(-c2ccccc2)nc2ccc(Br)cc2c1C(=O)NC12CCC(C(=O)O)(CC1)CC2 [Example 28, 4-{[(6-Bromo-3-ethyl-2-phenylquinolin-4-yl)carbonyl]amino}bicyclo[2.2.2]octane-1-carboxylic acid]
28 | 51 nM | O=C(NC12CCC(C(=O)O)(CC1)CC2)c1c(C2CC2)c(-c2ccccc2)nc2ccc(Br)cc12 [Example 29, 4-{[(6-Bromo-3-cyclopropyl-2-phenylquinolin-4-yl)carbonyl]amino}bicyclo[2.2.2]octane-1-carboxylic acid]
29 | 52 nM | O=C(NC12CCC(C(=O)O)(CC1)CC2)c1c(Cl)c(-c2ccccc2)nc2ccc(Br)cc12 [Example 30, 4-{[(6-Bromo-3-chloro-2-phenylquinolin-4-yl)carbonyl]amino}bicyclo[2.2.2]octane-1-carboxylic acid]
30 | 351 nM | CCCc1c(-c2ccccc2)nc2ccc(Br)cc2c1C(=O)NC12CCC(C(=O)O)(CC1)CC2 [Example 31, 4-{[(6-Bromo-2-phenyl-3-propylquinolin-4-yl)carbonyl]amino}bicyclo[2.2.2]octane-1-carboxylic acid]
